The test concerns the target T1, Plasmodium falciparum malate:quinone oxidoreductase (PfMQO) (Plasmodium falciparum, UniProt C6KT09).
T1 construct: gene PF3D7_0616800; PfMQO-membrane fraction from PfMQO-expressing recombinant Escherichia coli
T1 sequence (C6KT09 1-521): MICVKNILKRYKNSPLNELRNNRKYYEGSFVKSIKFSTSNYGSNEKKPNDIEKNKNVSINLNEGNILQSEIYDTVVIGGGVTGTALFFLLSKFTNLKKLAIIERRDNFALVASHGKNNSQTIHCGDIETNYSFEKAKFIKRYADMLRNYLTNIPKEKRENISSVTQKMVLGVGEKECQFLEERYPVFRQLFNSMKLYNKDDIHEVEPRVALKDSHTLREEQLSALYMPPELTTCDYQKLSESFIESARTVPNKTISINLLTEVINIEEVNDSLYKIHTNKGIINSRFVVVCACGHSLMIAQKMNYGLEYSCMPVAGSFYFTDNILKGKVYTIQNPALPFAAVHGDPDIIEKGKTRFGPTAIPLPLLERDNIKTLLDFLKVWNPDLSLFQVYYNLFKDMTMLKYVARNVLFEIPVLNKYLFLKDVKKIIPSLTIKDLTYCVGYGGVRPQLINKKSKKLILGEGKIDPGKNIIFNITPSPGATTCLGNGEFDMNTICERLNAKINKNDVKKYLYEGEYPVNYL
Put plainly: DCIP-reduction enzyme assay (A600, malate/decylubiquinone) with recombinant PfMQO membrane fraction. It counts as biochemical.

pIC50: −log10 of the molar value.

Consider `C/C=C(\C)c1c(Cl)c(O)c(C)c2c1Oc1c(Cl)c(O)c(Cl)c(C)c1C(=O)O2` [Fr10, nornidulin], for which the pIC50 was 4.29.

For the origin of these results see paper PMC9964459, “Nornidulin, A New Inhibitor of Plasmodium falciparum Malate: Quinone Oxidoreductase (PfMQO) from Indonesian Aspergillus sp. BioMCC f.T.8501” (Pharmaceuticals, 2023).
